Test results reported in patent US20080305189A1, “TREATMENT OF ASPIRIN RESISTANCE WITH RADIX SALVIAE MILTIORRHIZAE, ITS EXTRACT AND COMPOSITION” (Tianjin Tasly Pharmaceutical Co., Ltd., priority 2003, published 2008).

Assays:
[1] = tested on: urinary 11-dehydrothromboxane B2 (TXB2); test: Test Example 2: urinary 11-dehydrothromboxane B2 by immunoenzyme assay, CDDP study; format: in vivo, human; settings: group mean, n = 50; drugs for at least half a year
From the text: This study adopted a reviewing method, and the normal value referred to the research results about aspirin resistance in Australia.
All 178 patients, including 140 males and 38 females, came from the retired personnel of the First Sanatorium, Bafenbu Sanatorium. The patients were aged 70˜87 and the average age was 77.1. 170 patients were randomly selected for sample test and the number of patients whose data could be accepted was 150 (IC20˜IC80). Of those enrolled in the study, in addition to aspirin resistance, 91 patients were afflicted with hypertension, 25 patients were afflicted with hyperlipidemia, 32 patients were afflicted with diabetes, 139 patients were afflicted with coronary heart disease, and 57 patients were afflicted with cerebrovascular diseases. […] All the patients administered drugs for at least half a year before sampling.
The urinary sample was the middle section of the first urina of the day. The urinary sample was placed in the liquid nitrogen immediately after sampling and stored at −86[…] in a low-temperature refrigerator. The urinary 11-dehydrothromboxane B2 (TXB2) was determined by immunoenzyme assay using the reagent kit of Cayman Chemical company. All the experiments were completed in the Biological Institute of Tasly Research Academy. Information about patient grouping was double-blind for researchers and statisticians. […]

[2] = tested on: urinary 11-dehydrothromboxane B2 (TXB2); test: Test Example 3: urinary 11-dehydrothromboxane B2 by immunoenzyme assay, Compound Danshen Tablets study; format: in vivo, human; settings: group mean, n = 50; cardiovascular outpatients with tendency of aspirin resistance; drugs for at least half a year
From the text: 150 patients in this study were all selected from the cardiovascular outpatients having the tendency of aspirin resistance. All the patients, including 80 males and 70 females, aged between 70˜85, with the average age of 77. To treat aspirin resistance, 50 patients administered aspirin (aspirin group), 50 patients administered Compound Danshen Tablets (CDT group), and 50 patients administered aspirin and CDT simultaneously (combination therapy group). All the patients administered drugs for at least half a year before sampling.
The urinary sample was the middle section of the first urina of the day. The urinary sample was placed in the liquid nitrogen immediately after sampling and stored at −86□ in a low-temperature refrigerator. The urinary 11-dehydrothromboxane B2 (TXB2) was determined by immunoenzyme assay using the reagent kit of Cayman Chemical company. […] Information about patient grouping was double-blind for researchers and statisticians.

CC(=O)Oc1ccccc1C(=O)O [Aspirin, aspirin]
Urinary 11-dehydro TXB2, X ± SD [1]: 25.02 ± 10.51 ng/mmol
Urinary 11-dehydro TXB2, X ± SD [2]: 25.05 ± 10.42 ng/mmol
